Measured values reported in patent publication US5919668A, “Non-reducing saccharide and its production and use” (Kabushiki Kaisha Hayashibara Seibutsu Kagaku Kenkyujo, priority 1994, dated 1999).

Target: T1, trehalose-releasing enzyme (Rhizobium sp. M-11, UniProt Q53238)
T1 construct: M-11, about 58-68 kDa
T1 sequence (Q53238 1-596): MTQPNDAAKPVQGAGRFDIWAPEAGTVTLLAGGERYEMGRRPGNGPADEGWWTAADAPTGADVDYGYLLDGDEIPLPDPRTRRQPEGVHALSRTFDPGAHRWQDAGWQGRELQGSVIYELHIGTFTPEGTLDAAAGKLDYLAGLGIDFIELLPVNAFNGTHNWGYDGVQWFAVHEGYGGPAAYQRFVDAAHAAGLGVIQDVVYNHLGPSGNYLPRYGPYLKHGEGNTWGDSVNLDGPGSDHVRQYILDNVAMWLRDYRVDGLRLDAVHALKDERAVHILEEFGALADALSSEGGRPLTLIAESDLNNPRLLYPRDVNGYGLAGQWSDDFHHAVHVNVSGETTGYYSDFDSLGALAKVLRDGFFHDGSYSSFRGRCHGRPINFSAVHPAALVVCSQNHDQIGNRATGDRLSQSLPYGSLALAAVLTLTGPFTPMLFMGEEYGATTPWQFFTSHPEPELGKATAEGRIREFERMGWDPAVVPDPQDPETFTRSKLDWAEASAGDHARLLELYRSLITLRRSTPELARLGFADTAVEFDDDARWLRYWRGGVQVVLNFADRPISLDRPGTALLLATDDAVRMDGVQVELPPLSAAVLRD
Assay type: biochemical, Rhizobium species M-11
Conditions: for Composition: trehalose formed / Composition: reducing saccharide formed: 20% substrate, 2 units/g, 40° C., pH7.0, 48 hours; for Composition: reducing saccharide formed: glucose, maltose, maltotriose, maltotetraose or maltopentaose respectively; for Composition: residual substrate: trehalose-releasing enzyme, 48 h, pH 7
Procedure: Alpha-glycosyl trehaloses as substrates were prepared in accordance with the method described in Japanese Patent Application No. 349,216/93. More particularly, 20% aqueous solutions of maltotriose, maltotetraose, maltopentaose, maltohexaose or maltoheptaose as reducing partial starch hydrolysate were added with 2 units/g substrate solid of a purified non-reducing saccharide-forming enzyme obtained by the method in […], reacted at 40° C. and pH7.0 for 48 hours, heated for inactivation, filtered, deionized, concentrated in conventional manner and applied to ion exchange column chromatography on a strongly-acidic cation exchange "XT-1016" in sodium form. The ion exchange resin was packed in 3 jacketed-stainless steel columns, inner diameter of 2.0 cm, length of 1 m, and the columns were cascaded, loaded with 5 v/v % reaction saccharide liquid against the resin and injected with 55° C. water at SV0.13 for fractionation while keeping the temperature inside the columns at 55° C., thus obtaining high-purity preparations of non-reducing saccharides with glucose polymerization degrees of 3 or higher.
20% Aqueous solutions of these five types of non-reducing saccharides or alpha-glycosyl trehaloses were prepared, added with 2 units/g substrate solid of the purified trehalose-releasing enzyme obtained in Experiment 15, reacted at 40° C. and pH7.0 for 48 hours, deionized and subjected to high-performance liquid chromatography on "WAKO BEADS WB-T-330" for analysis of reaction products. As control, maltotriose, maltotetraose, maltopentaose, maltohexaose and maltoheptaose were subjected to the purified trehalose-releasing enzyme similarly as above and then analyzed on high-performance liquid chromatography.

Row | Compound | Composition: trehalose formed [%] | Composition: reducing saccharide formed [%] | Composition: residual substrate [%]
1 | OC[C@H]1O[C@H](O[C@H]2O[C@H](CO)[C@@H](O[C@H]3O[C@H](CO)[C@@H](O[C@H]4O[C@H](CO)[C@@H](O[C@H]5O[C@H](CO)[C@@H](O[C@H]6O[C@H](CO)[C@@H](O[C@H]7O[C@H](CO)[C@@H](O)[C@H](O)[C@H]7O)[C@H](O)[C@H]6O)[C@H](O)[C@H]5O)[C@H](O)[C@H]4O)[C@H](O)[C@H]3O)[C@H](O)[C@H]2O)[C@H](O)[C@@H](O)[C@@H]1O [PV, alpha-maltopentaosyl trehalose] | 29.1 | 70.6 | 0.3
2 | OC[C@H]1O[C@H](O[C@H]2O[C@H](CO)[C@@H](O[C@H]3O[C@H](CO)[C@@H](O[C@H]4O[C@H](CO)[C@@H](O[C@H]5O[C@H](CO)[C@@H](O[C@H]6O[C@H](CO)[C@@H](O)[C@H](O)[C@H]6O)[C@H](O)[C@H]5O)[C@H](O)[C@H]4O)[C@H](O)[C@H]3O)[C@H](O)[C@H]2O)[C@H](O)[C@@H](O)[C@@H]1O [PIV, alpha-maltotetraosyl trehalose] | 34.2 | 65.5 | 0.3
3 | OC[C@H]1O[C@H](O[C@H]2O[C@H](CO)[C@@H](O[C@H]3O[C@H](CO)[C@@H](O[C@H]4O[C@H](CO)[C@@H](O)[C@H](O)[C@H]4O)[C@H](O)[C@H]3O)[C@H](O)[C@H]2O)[C@H](O)[C@@H](O)[C@@H]1O [PII, alpha-maltosyl trehalose] | 44.3 | 44.4 | 11.3
4 | OC[C@H]1O[C@H](O[C@H]2O[C@H](CO)[C@@H](O[C@H]3O[C@H](CO)[C@@H](O[C@H]4O[C@H](CO)[C@@H](O[C@H]5O[C@H](CO)[C@@H](O)[C@H](O)[C@H]5O)[C@H](O)[C@H]4O)[C@H](O)[C@H]3O)[C@H](O)[C@H]2O)[C@H](O)[C@@H](O)[C@@H]1O [PIII, alpha-maltotriosyl trehalose] | 39.5 | 60.0 | 0.5
5 | OC[C@H]1O[C@H](O[C@H]2O[C@H](CO)[C@@H](O[C@H]3O[C@H](CO)[C@@H](O)[C@H](O)[C@H]3O)[C@H](O)[C@H]2O)[C@H](O)[C@@H](O)[C@@H]1O [PI, alpha-glucosyl trehalose] | 17.5 | 6.5 | 76.0
